Earlier results on 1 molecule are cited in patent US20040131694A1, “Pharmaceutical composition for the medical treatment of the benign prostatic hyperplasia, its preparation method and its therapeutic application” (H.P.B. S.A., priority 2002, published 2004).

In the series the test system is Bladder outlet obstruction due to Benign Prostatic Hyperplasia.
Where [1] appears, read: Up to 24 weaks of treatment, Tammela and Kontturi 1993.

In the case of `CC(C)(C)NC(=O)[C@H]1CC[C@H]2[C@@H]3CC[C@H]4NC(=O)C=C[C@]4(C)[C@H]3CC[C@]12C` [Finasteride], under setting [1], the Daytime frequency is 1.4, the Dysuria is recorded as 0.4, the Hesitancy is listed as 0.5 and the Intermittence was 0.7. Besides, under setting [1], the Nocturia is 1.5, the “Prostatic specific antigen (ng. %)” value was 2.9 ng. %, the “Prostatic volume (grs.)” value is recorded as 35 gr and the “Q max.” value is 10.3 mL/s. For the same molecule, under setting [1], the “Residual urine volume (ml.)” value is on record as 76 cc, the “Sensation of incomplete Voiding” value was 0.9, the Terminal dribbling is listed as 0.4 and the “Total points (I-PSS)” value is 7.1 points. Further, under setting [1], the Urgency is given as 0.7 and the Weak stream was 0.6. In addition, the Residual effect entry (treatment must be continuous) is on record as “none”.
